Reference: ChEMBL document CHEMBL1148279, “Effects of bisphosphonates on the growth of Entamoeba histolytica and Plasmodium species in vitro and in vivo” (J Med Chem, 2004)

What was measured:
Entamoeba histolytica = test: In vitro growth inhibition against Entamoeba histolytica; type: functional, organism-based
[1] = Therapeutic index was expressed as ratio of LD50 for KB cell line to IC50 against Entamoeba histolytica; type: cell-based; settings: human, KB cells; read-out: TI
in vitro = settings: human, KB cells (nasopharyngeal carcinoma)
Description: Toxicity evaluated against human nasopharyngeal carcinoma KB cell line

Plasmodium falciparum [2] = test: microbe, parasite or virus in culture
Description: In vitro growth inhibition against Plasmodium falciparum

Cricetinae gen. sp. [3] = test: Percent decrease of amebic liver abscess (mg) formation in Entamoeba histolytica infected hamsters (treated at 10 mg/kg ip once a day for 5 days); type: functional; settings: route intraperitoneal
Cricetinae gen. sp. [4] = test: Percent decrease of normal liver weight (mg) in Entamoeba histolytica infected hamsters (treated at 10 mg/kg ip once a day for 5 days); type: functional, Cricetulus griseus; settings: route intraperitoneal
Cricetinae gen. sp. [5] = test: Mean effect on amebic liver abscess (mg) formation in Entamoeba histolytica infected hamsters (treated at 10 mg/kg ip once a day for 5 days); type: functional, Cricetulus griseus; settings: route intraperitoneal
Cricetinae gen. sp. [6] = test: Mean effect on normal liver weight (mg) in Entamoeba histolytica infected hamsters (treated at 10 mg/kg ip once a day for 5 days); type: functional, Cricetulus griseus; settings: route intraperitoneal
[7] = Therapeutic index was expressed as ratio of LD50 for KB cell line to IC50 against Plasmodium falciparum; type: cell-based; settings: human, KB cells; read-out: TI
[8] = Inhibitory activity against Entamoeba histolytica pyrophosphate-dependent phosphofructokinase (PFK); type: functional
Mus musculus [9] = test: Mean reduction in parasitaemia of Plasmodium berghei ANKA suppressive test in mice (Mus musculus) (in vivo) at 25 mg/kg scheduled for 4 days; type: functional
[10] = Inhibitory activity against Entamoeba histolytica pyrophosphate-dependent phosphofructokinase (PFK) (Range is 900-1000); type: functional
Mus musculus [11] = test: Mean reduction in parasitaemia of Plasmodium berghei ANKA suppressive test in mice (Mus musculus) (in vivo) at 10 mg/kg scheduled for 4 days; type: functional
[12] = Inhibitory activity against Entamoeba histolytica pyrophosphate-dependent phosphofructokinase (PFK) (Range is 2500-3000); type: functional
Plasmodium falciparum [13] = test: Inhibitory activity against Plasmodium falciparum W2
Plasmodium falciparum [14] = test: Inhibitory activity against Plasmodium falciparum 3D7
Plasmodium falciparum [15] = test: Inhibitory activity against Plasmodium falciparum Ghana
Mus musculus [16] = test: Mean reduction in parasitaemia of Plasmodium berghei ANKA suppressive test in mice (Mus musculus) (in vivo) at 10 mg/kg scheduled for 2 days; type: functional

Structure (SMILES) | IC50 (Entamoeba histolytica) | selectivity ratio [1] | CC50 (in vitro) | IC50 (Plasmodium falciparum [2]) | selectivity ratio [7] | also measured
CC(C)(C)c1cc(NC(P(=O)(O)O)P(=O)(O)O)cc(C(C)(C)C)c1 | 19.2 µM | 33 | 634 µM | > 200 µM |  | 
O=P(O)(O)C(NC1CC1)P(=O)(O)O [(CYCLOPROPYLAMINO)METHYLENEDIPHOSPHONIC ACID] | 113 µM | 2.18 | 246 µM | > 200 µM |  | 
CN(CCOc1ccccc1)CCC(O)(P(=O)(O)O)P(=O)(O)O | 6.49 µM |  | 312 µM | 31.4 µM |  | Decrease (Cricetinae gen. sp. [3]): -19%; Decrease (Cricetinae gen. sp. [4]): 3%; Mean effect (Cricetinae gen. sp. [5]): 1058 mg; Mean effect (Cricetinae gen. sp. [6]): 2295 mg
O=P(O)(O)C(O)(CSc1ccncc1)P(=O)(O)O | > 200 µM |  | > 746 µM |  | > 4.72 | 
O=P(O)(O)C(NCCCc1ccccc1)P(=O)(O)O | 15.6 µM | > 62.2 | > 970 µM | > 200 µM |  | 
CCCCc1ccc(NC(P(=O)(O)O)P(=O)(O)O)cc1 | 172 µM | 1.62 | 278 µM | 31.3 µM | 8.89 | 
CCCCCC(C)NC(P(=O)(O)O)P(=O)(O)O (configuration not stated) | 65.3 µM | > 15.1 | > 989 µM | 103 µM | > 9.64 | 
CCCCN(CC)C(P(=O)(O)O)P(=O)(O)O [(BUTYL(ETHYL)AMINO)METHYLENEDIPHOSPHONIC ACID] | 47.3 µM | > 22.3 | > 1060 µM | > 200 µM |  | 
O=P(O)(O)C(Nc1cc(Br)cc(Br)n1)P(=O)(O)O | 28.5 µM | 18.2 | 520 µM | > 200 µM |  | Decrease (Cricetinae gen. sp. [3]): 14%; Decrease (Cricetinae gen. sp. [4]): -22%; Mean effect (Cricetinae gen. sp. [5]): 767 mg; Mean effect (Cricetinae gen. sp. [6]): 2883 mg
CCCCCCNC(P(=O)(O)O)P(=O)(O)O [(HEXYLAMINO)METHYLENEDIPHOSPHONIC ACID] | > 200 µM |  | > 966 µM | 56.5 µM | > 17.1 | 
CCCCCCCCCCCCCC(O)(P(=O)(O)O)P(=O)(O)O | 74 µM | 0.5 | 36.8 µM | 2.12 µM | 17.4 | 
CCCCCCCCCCC(O)(P(=O)(O)O)P(=O)(O)O | 11 µM |  | > 806 µM | 5.23 µM |  | Decrease (Cricetinae gen. sp. [3]): 68%; Decrease (Cricetinae gen. sp. [4]): 9%; Mean effect (Cricetinae gen. sp. [5]): 285 mg; Mean effect (Cricetinae gen. sp. [6]): 2163 mg; IC50 [8]: 20 µM
CCCCCCC(CCCC)C(O)(P(=O)(O)O)P(=O)(O)O (configuration not stated) | 12.4 µM | 19.1 | 228 µM | > 200 µM |  | IC50 [8]: 1000 µM
CC(C)CCNC(P(=O)(O)O)P(=O)(O)O [(ISOPENTYLAMINO)METHYLENEDIPHOSPHONIC ACID] | 36.9 µM | 13 | 480 µM | > 200 µM |  | 
O=P(O)(O)C(Nc1cccc(-c2ccccc2)c1)P(=O)(O)O | 6.6 µM |  | 749 µM | > 200 µM |  | Decrease (Cricetinae gen. sp. [3]): 36%; Decrease (Cricetinae gen. sp. [4]): -4%; Mean effect (Cricetinae gen. sp. [5]): 570 mg; Mean effect (Cricetinae gen. sp. [6]): 2459 mg; IC50 [8]: 90 µM
CCCCCNC(P(=O)(O)O)P(=O)(O)O [(PENTYLAMINO)METHYLENEDIPHOSPHONIC ACID] | > 200 µM |  | > 1150 µM | 4.8 µM | > 240 | 
O=P(O)(O)C(O)(Cc1ccccc1)P(=O)(O)O | > 200 µM |  | > 931 µM |  | > 121 | Reduction (Mus musculus [9]): 64%; IC50 [10]: 1000 µM
CCCCCCCCCCCC(O)(P(=O)(O)O)P(=O)(O)O | 63.7 µM |  |  | 1.07 µM |  | IC50 [8]: 40 µM
O=P(O)(O)C(Nc1ccc(O)nc1)P(=O)(O)O | 96.1 µM | 2.67 | 257 µM | 197 µM | 1.3 | 
O=P(O)(O)C(Nc1ccc(Cl)nc1)P(=O)(O)O | 21.7 µM | > 45.7 | > 992 µM | > 200 µM |  | 
O=P(O)(O)C(Nc1ccc(-c2ccccc2)cc1)P(=O)(O)O | 8.76 µM | 56.5 | 495 µM | 76.6 µM | 6.46 | 
NCCC(O)(P(=O)(O)O)P(=O)(O)O [PAMIDRONIC ACID] | > 200 µM |  |  |  |  | Reduction (Mus musculus [9]): 5%
O=P(O)(O)C(O)(Cc1cccnc1)P(=O)(O)O [RISEDRONIC ACID] | 73.5 µM |  |  |  |  | IC50 [8]: > 3000 µM

Structure (SMILES) | IC50 (Entamoeba histolytica) | selectivity ratio [1] | CC50 (in vitro) | IC50 (Plasmodium falciparum [2]) | selectivity ratio [7] | also measured
CN(CCCCc1ccccc1)CCC(O)(P(=O)(O)O)P(=O)(O)O | 23.4 µM |  | > 690 µM | 2.9 µM |  | Decrease (Cricetinae gen. sp. [3]): 89%; Decrease (Cricetinae gen. sp. [4]): 26%; Mean effect (Cricetinae gen. sp. [5]): 94 mg; Mean effect (Cricetinae gen. sp. [6]): 1756 mg
CCCCCCCCCNC(P(=O)(O)O)P(=O)(O)O [(NONYLAMINO)METHYLENEDIPHOSPHONIC ACID] | 136 µM | > 6.76 | > 919 µM | 112 µM | > 8.18 | 
Cc1cc(C)nc(NC(P(=O)(O)O)P(=O)(O)O)c1 | 177 µM | 3.58 | 633 µM | > 200 µM |  | 
CCCCCCCCCCCCCCCC(O)(P(=O)(O)O)P(=O)(O)O | 44 µM | > 16.6 | > 729 µM | 28.8 µM | > 25.3 | 
CCCCCCCCNC(P(=O)(O)O)P(=O)(O)O [(OCTYLAMINO)METHYLENEDIPHOSPHONIC ACID] | 31.1 µM | 2.15 |  | 13.3 µM | 5.02 | IC50 [8]: > 3000 µM
CC(C)N(C(C)C)C(P(=O)(O)O)P(=O)(O)O [(DIISOPROPYLAMINO)METHYLENEDIPHOSPHONIC ACID] | 194 µM | 4.39 | 852 µM | > 200 µM |  | 
O=P(O)(O)C(NC1CCCCCCC1)P(=O)(O)O [(CYCLOOCTYLAMINO)METHYLENEDIPHOSPHONIC ACID] | 15.5 µM | 22.9 | 354 µM | > 200 µM |  | 
CCCCOc1ccc(NC(P(=O)(O)O)P(=O)(O)O)cc1 | 3.98 µM | 52.7 | 210 µM | > 200 µM |  | 
CCC(C)CNC(P(=O)(O)O)P(=O)(O)O (configuration not stated) | 135 µM | 2.92 | 394 µM | > 200 µM |  | 
CCN(CC)C(P(=O)(O)O)P(=O)(O)O [(DIETHYLAMINO)METHYLENEDIPHOSPHONIC ACID] | 62.6 µM | 12.9 |  | 90.1 µM | 8.98 | 
CCCCCCC(O)(P(=O)(O)O)P(=O)(O)O | 29.5 µM |  | 109 µM | 4.34 µM |  | Reduction (Mus musculus [11]): 48%; IC50 [12]: 3000 µM; IC50 (Plasmodium falciparum [13]): 0.5 µM; IC50 (Plasmodium falciparum [14]): 4.34 µM; IC50 (Plasmodium falciparum [15]): 0.5 µM
O=P(O)(O)C(Nc1cccnc1)P(=O)(O)O | 60 µM | 13 | 782 µM | > 200 µM |  | 
O=P(O)(O)C(N1CCc2ccccc2C1)P(=O)(O)O | 71 µM | > 13 | > 922 µM |  |  | 
CCCCCCCCCC(O)(P(=O)(O)O)P(=O)(O)O | 13.3 µM |  | > 775 µM | 0.83 µM |  | Reduction (Mus musculus [16]): 75%; IC50 [8]: 70 µM; IC50 (Plasmodium falciparum [13]): 1 µM; IC50 (Plasmodium falciparum [14]): 0.83 µM; IC50 (Plasmodium falciparum [15]): 2 µM
CCCCCCc1ccc(NC(P(=O)(O)O)P(=O)(O)O)cc1 | 132 µM | 2.83 | 373 µM | 46.3 µM | 8.06 | 
O=P(O)(O)C(O)(CCNCCCCc1ccccc1)P(=O)(O)O | 20.5 µM | > 35.5 | > 727 µM | > 200 µM |  | 
CCCCC(O)(P(=O)(O)O)P(=O)(O)O | > 200 µM |  | > 1040 µM |  | > 18.4 | 
CN(CCCc1ccccc1)CCC(O)(P(=O)(O)O)P(=O)(O)O | 45.1 µM | 8.4 | 379 µM | 22.8 µM | 16.6 | 
O=P(O)(O)C(N1CCOCC1)P(=O)(O)O [MORPHOLINOMETHYLENEDIPHOSPHONIC ACID] | > 200 µM |  | 964 µM | 18.4 µM | 52.4 | 
O=P(O)(O)C(NC1CCCC1)P(=O)(O)O [(CYCLOPENTYLAMINO)METHYLENEDIPHOSPHONIC ACID] | 35.9 µM | 17.5 | 629 µM | > 200 µM |  | 
CCN(CC)CCCC(C)Nc1ccnc2cc(Cl)ccc12 (configuration not stated) [CHLOROQUINE] |  |  |  |  |  | Reduction (Mus musculus [11]): 100%
CN(CCc1ccccc1)CCC(O)(P(=O)(O)O)P(=O)(O)O | 143 µM | > 5.2 | > 739 µM | 33.5 µM | > 22 | 
O=P(O)(O)C(Nc1ccc(I)cn1)P(=O)(O)O | 39.5 µM | 11.8 | 466 µM | > 200 µM |  | 
